In patent publication US20210316003A1 (Immunomedics, Inc., priority 2020, published 2021):
Several values for one entry are separate records, joined by “and”; a condition that tells them apart may be missing. Identical values can stand only once.

Tested on: patients with mSCLC
Test: Phase I/II trial (NCT01631552), mSCLC: efficacy by RECIST 1.1
Assay type: in vivo, human
Description: Patients ≥18 years of age with mSCLC who had relapsed or were refractory to at least one prior standard line of therapy for stage IV metastatic disease, and with measurable tumors by CT, were enrolled. […] Previous therapy had to be completed at least 4 weeks before enrollment.
The primary endpoint was the proportion of patients with a confirmed objective response, assessed approximately every 8 weeks until disease progression, by each institution's radiology group or a contracted local radiology service. Objective responses were assessed by Response Evaluation Criteria in Solid Tumors, version 1.1 (RECIST 1.1) (Eisenhauer et al., 2009, Eur J Cancer 45:228-47). Partial (PR) or complete responses (CR) required confirmation within 4 to 6 weeks after the initial response. Clinical benefit rate (CBR) is defined as those patients with an objective response plus stable disease (SD) ≥4 months. Survival was monitored every 3 months until death or withdrawal of consent.
The protocol provided that objective response rates (ORR) were determined for patients who received ≥2 doses (1 cycle) and had their initial 8-week CT assessment. Duration of response is defined in accordance to RECIST 1.1 criteria, with those having an objective response marked from time of the first evidence of response until progression, while stable disease duration is marked from the start of treatment until progression. PFS and OS were defined from the start of treatment until an objective assessment of progression was determined (PFS) or death (OS). Duration of response, PFS, and OS were estimated by Kaplan-Meier methods, with 95% confidence intervals (CI), using MedCalc Statistical Software, version 16.4.3 (Ostend, Belgium).

[1] = SG as ≥3 line, no prior topotecan/irinotecan (N = 9)
[2] = SG as ≥3 line, prior topotecan/irinotecan (N = 15)
[3] = prior immune checkpoint inhibitor

With sacituzumab govitecan the “Duration of SD in ten patients with SD ≥4 months, Kaplan-Meier-derived median” value was 5.6 months, the “Median OS for the seven confirmed PR patients” value was 9.2 months and the “Median OS for the ten patients with SD ≥4 months” value was 8.3 months. For the same substance, the “Confirmed PR” value (8 mg/kg starting dose, thirteen patients) was 8%, the “Confirmed PR” value (10 mg/kg starting dose (N = 30)) was 20% and the “CBR (clinical benefit rate)” value (10 mg/kg starting dose, 14/30) was 47%. The “Patients with a reduction of tumor size from baseline” value (21 of 43 CT-assessable patients) was 49%, the “Stable disease (SD), including unconfirmed PR” value (21 of 43 assessable patients) was 49% and the “PD, %” value (43 with response assessment) was “(35%)”. The “Duration of confirmed objective response, median” value (Kaplan-Meier) was 5.7 months, the “Clinical benefit rate (PR + SD ≥ 4 months), %” value (SG as second line (N = 19)) was “(37%)” and the “OS, median” value (SG as second line (N = 19)) was 8.1 months. For the same substance, the “PFS, median” value (SG as second line (N = 19)) was 3.6 months, the “Clinical benefit rate (PR + SD ≥ 4 months), %” value (SG as ≥3 line (N = 24)) was “(38%)” and the “OS, median” value (SG as ≥3 line (N = 24)) was 7.0 months. For the same substance, the “PFS, median” value (SG as ≥3 line (N = 24)) was 3.7 months, the “Clinical benefit rate (PR + SD ≥ 4 months), %” value [1] was “(33%)” and the “OS, median” value [1] was 5.5 months. The “PFS, median” value [1] was 3.7 months, the “Clinical benefit rate (PR + SD ≥ 4 months), %” value [2] was “(40%)” and the “OS, median” value [2] was 8.8 months. The “PFS, median” value [2] was 3.8 months and 3.6 months, the “Overall survival, median” value (intention-to-treat N = 53) was 7.0 months and the “Progression-free survival, median” value (intention-to-treat N = 53) was 3.6 months. The “Tumor shrinkage (SD lasting 8.7 months), single patient” value [3] was 17%, the “Tumor shrinkage on first assessment (unconfirmed PR), single patient” value [3] was 54% and the “Clinical benefit rate (PR + SD ≥ 4 months), %” value (resistant (N = 19) to 1st line) was “(26%)”. For the same substance, the “OS, median” value (resistant (N = 19) to 1st line) was 6.2 months, the “PFS, median” value (resistant (N = 19) to 1st line) was 3.6 months and the “Confirmed PR” value (resistant to first-line platinum, nineteen patients) was 16%. The PR (second-line setting, 3/19) was 16%, the “Clinical benefit rate (PR + SD ≥ 4 months), %” value (sensitive (N = 24) to 1st line) was “(50%)” and the “OS, median” value (sensitive (N = 24) to 1st line) was 8.3 months. For the same substance, the “PFS, median” value (sensitive (N = 24) to 1st line) was 3.8 months, the “Confirmed PR” value (sensitive to first-line platinum, 24 patients) was 17% and the “Median time to response” value (seven confirmed PR) was 2.0 months. The “Median PFS for the confirmed PR group” value (seven patients) was 7.9 months and the “Confirmed PR” value (third or higher line (N = 24)) was 16%.
